Earlier results as cited in patent publication EP4563141A1, “SELF-EMULSIFYING FORMULATION FOR TOPICAL USE” (Guidotti, Elena, priority 2023, dated 2025).
Read-outs that look alike come from different tables or passages of the source.

Assays:
[1] = tested on: S. aureus biofilm formation; settings: 0.01% (v/v); trans-nerolidol at a similar concentration
CB2 = CB2 (Homo sapiens, UniProt P34972)
CB1 = CB1 (Homo sapiens, UniProt P21554)
[2] = compared with animals in the control group
[3] = several drugs, particularly 5-fluorouracil, with the use of nerolidol
[4] = human; 4% nerolidol (unspecified isomer); single occlusive application for 48 h
[5] = not given; remark: listed apart in the source
[6] = human; 4% (unspecified isomer); maximization tests or repeated insult tests
[7] = not given; remark: listed apart in the source

Sequence of CB2 (P34972 whole entry, species assumed): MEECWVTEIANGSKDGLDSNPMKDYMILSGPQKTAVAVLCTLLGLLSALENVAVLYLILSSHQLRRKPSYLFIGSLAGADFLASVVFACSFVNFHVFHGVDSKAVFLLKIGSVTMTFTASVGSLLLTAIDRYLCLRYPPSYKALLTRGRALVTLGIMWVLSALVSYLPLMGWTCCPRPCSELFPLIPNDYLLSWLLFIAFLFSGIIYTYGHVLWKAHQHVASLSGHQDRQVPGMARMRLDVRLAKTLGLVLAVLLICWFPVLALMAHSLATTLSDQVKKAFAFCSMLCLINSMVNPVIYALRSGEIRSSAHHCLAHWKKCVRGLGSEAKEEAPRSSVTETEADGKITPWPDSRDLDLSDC
Sequence of CB1 (P21554 whole entry, species assumed): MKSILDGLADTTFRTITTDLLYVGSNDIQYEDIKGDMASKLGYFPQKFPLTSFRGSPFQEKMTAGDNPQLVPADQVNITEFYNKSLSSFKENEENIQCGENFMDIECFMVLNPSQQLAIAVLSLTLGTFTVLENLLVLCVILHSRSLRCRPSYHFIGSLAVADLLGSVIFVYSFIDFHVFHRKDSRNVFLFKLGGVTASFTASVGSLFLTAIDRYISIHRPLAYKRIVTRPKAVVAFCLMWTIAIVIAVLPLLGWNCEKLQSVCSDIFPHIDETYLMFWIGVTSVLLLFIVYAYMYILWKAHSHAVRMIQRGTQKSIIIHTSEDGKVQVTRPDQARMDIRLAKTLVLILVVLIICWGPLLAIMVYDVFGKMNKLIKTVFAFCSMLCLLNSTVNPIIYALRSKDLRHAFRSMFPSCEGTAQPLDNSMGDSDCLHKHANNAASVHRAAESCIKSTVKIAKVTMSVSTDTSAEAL

C=CC(C)(O)CC/C=C(/C)CCC=C(C)C (stereo not drawn) [Cis-nerolidol]
inhibit S. aureus biofilm formation [1]: more than 80%

C=CCc1ccc(O)c(-c2ccc(O)c(CC=C)c2)c1 [honokiol]
mode of activity at CB2 (CB2): antagonistic properties | mode of activity at CB1 (CB1): full agonistic activity | LogP: over 4

C=CCc1ccc(O)c(-c2cc(CC=C)ccc2O)c1 [magnolol]
mode of activity at CB2 (CB2): partial CBD receptor agonist | LogP: over 4

C=CC(C)(O)CCC=C(C)CCC=C(C)C (centres unmarked) [nerolidol, 3,7,11-trimethyl-1,6,10-Dodecatrien-3-ol]
reduction in ulcerative lesion index (ULI) ([2]; 50 mg/k): 41.22 | reduction in ulcerative lesion index (ULI) ([2]; 250 mg/k): 51.31 | reduction in ulcerative lesion index (ULI) ([2]; 500 mg/k): 56.57 | increase in diffusion rate for transdermal penetration [3]: more than 20 fold | skin irritation [4]: did not cause skin irritation | skin irritation ([5]; 5% in diethyl phthalate, eliminated after 48 h): very mild edema in one animal | skin irritation ([5]; rabbits, undiluted (unspecified isomer), intact and abraded skin, after 48 h): well-defined erythema or mild edema | skin sensitization [6]: did not cause positive reactions | cross-sensitization ([7]; guinea pigs induced with farnesyl acetate): no cross-sensitization was observed | skin sensitization ([7]; guinea pigs, two adjuvant tests, concentrations of 3% and 10%): weak reactions

C=CC(C)(O)CC/C=C(\C)CCC=C(C)C (stereo not drawn) [trans-nerolidol]
inhibit S. aureus biofilm formation [1]: 45%
